Activity calls are given as the source filed them. No cut-off for these calls is given here.
Tests used:
[1] = test system: Escherichia coli; assay: Antimicrobial activity against Escherichia coli ATCC 25922 assessed as inhibition of visible bacterial growth incubated for 18 hrs by broth microdilution method; format: functional
[2] = test system: Staphylococcus aureus; assay: Antimicrobial activity against Staphylococcus aureus ATCC 25923 assessed as inhibition of visible bacterial growth incubated for 18 hrs by broth-dilution method; format: functional
[3] = test system: Staphylococcus aureus; assay: Antimicrobial activity against methicillin-drug resistant Staphylococcus aureus ATCC 33591 assessed as concentration required to eliminate 90% bacteria incubated for 18 hrs by broth-microdilution method; format: functional
[4] = test system: Staphylococcus aureus; assay: Antimicrobial activity against methicillin-drug resistant Staphylococcus aureus clinical isolate 2 assessed as concentration required to eliminate 90% bacteria incubated for 18 hrs by broth-microdilution method; format: functional
[5] = test system: Staphylococcus aureus; assay: Antimicrobial activity against methicillin-drug resistant Staphylococcus aureus clinical isolate 54 assessed as concentration required to eliminate 90% bacteria incubated for 18 hrs by broth-microdilution method; format: functional
[6] = test system: Staphylococcus aureus; assay: Antimicrobial activity against methicillin-drug resistant Staphylococcus aureus clinical isolate 936 assessed as concentration required to eliminate 90% bacteria incubated for 18 hrs by broth-microdilution method; format: functional
[7] = Hemolytic activity in mouse red blood cells assessed as hemolysis at 256 uM incubated for 1 hrs by absorbance based assay relative to control; format: toxicity, cell-based, Erythrocyte; settings: read-out: Activity
[8] = test system: Pseudomonas aeruginosa; assay: Antibacterial activity against Pseudomonas aeruginosa ATCC 27853 assessed as fold change in MIC incubated for 18 hrs in presence of KCl by Mueller-Hinton broth based assay; format: functional
[9] = test system: Pseudomonas aeruginosa; assay: Antibacterial activity against Pseudomonas aeruginosa ATCC 27853 incubated for 18 hrs in presence of MgCl2 by Mueller-Hinton broth based assay; format: functional, organism-based
[10] = test system: Pseudomonas aeruginosa; assay: Antibacterial activity against Pseudomonas aeruginosa ATCC 27853 incubated for 18 hrs in presence of ZnCl2 by Mueller-Hinton broth based assay; format: functional, organism-based
[11] = test system: Staphylococcus aureus; assay: Antibacterial activity against Staphylococcus aureus ATCC 25923 assessed as fold change in MIC incubated for 18 hrs in presence of KCl by Mueller-Hinton broth based assay; format: functional
[12] = test system: Pseudomonas aeruginosa; assay: Antibacterial activity against Pseudomonas aeruginosa ATCC 27853 assessed as fold change in MIC incubated for 18 hrs in presence of 2.5% serum by broth microdilution method; format: functional
[13] = test system: Pseudomonas aeruginosa; assay: Antibacterial activity against Pseudomonas aeruginosa ATCC 27853 assessed as fold change in MIC incubated for 18 hrs in presence of 5% serum by broth microdilution method; format: functional
[14] = test system: Staphylococcus aureus; assay: Antibiofilm activity in Staphylococcus aureus ATCC 25923 assessed as inhibition of biofilm formation at 4 times of MIC incubated for 24 hrs by crystal violet staining based analysis relative to control; format: functional
[15] = test system: Staphylococcus aureus; assay: Resistance fold, ratio of MIC for Staphylococcus aureus ATCC 25923 measured after 20 passages in presence of gentamicin to MIC for Staphylococcus aureus ATCC 25923 measured immediately in presence of gentamicin; format: functional
[16] = test system: Pseudomonas aeruginosa; assay: Synergistic antimicrobial activity against gentamicin-resistant Pseudomonas aeruginosa ATCC 27853 assessed as fractional inhibitory concentration index incubated for 18 hrs in presence of gentamicin by checkerboard microdilution method; format: functional
[17] = test system: Pseudomonas aeruginosa; assay: Antibacterial activity against Pseudomonas aeruginosa ATCC 27853 assessed as inhibition of bacterial growth compound pretreated with 256 microg/ml of LPS for 1 hrs followed by bacterial addition and measured after 18 hrs by absorbance based assay; format: functional, organism-based
[18] = test system: DNA; assay: Binding affinity to Staphylococcus aureus ATCC 25923 DNA at 2 times of MIC measured after 30 mins by agarose gel electrophoresis; format: nucleic-acid assay
[19] = test system: Pseudomonas aeruginosa; assay: Induction of morphological changes in Pseudomonas aeruginosa ATCC 27853 assessed as cell adhesion at 2 times of MIC incubated for 30 to 120 mins by SEM analysis; format: functional, organism-based; settings: time 30-120 min
[20] = test system: Pseudomonas aeruginosa; assay: Induction of morphological changes in Pseudomonas aeruginosa ATCC 27853 assessed as cellular fragmentation at 2 times of MIC incubated for 30 to 120 mins by SEM analysis; format: functional, organism-based; settings: time 30-120 min
[21] = test system: Pseudomonas aeruginosa; assay: Induction of morphological changes in Pseudomonas aeruginosa ATCC 27853 assessed as blister formation at 2 times of MIC incubated for 30 to 120 mins by SEM analysis; format: functional, organism-based; settings: time 30-120 min
[22] = test system: Klebsiella pneumoniae; assay: Antibacterial activity against Klebsiella pneumoniae ATCC 700603 infected in male Balb/c mouse model of pneumonia assessed as decrease in decrease in IL-1beta level in lung at 2.5 to 10 mg/kg, ip administered at 4 and 12 hrs post-infected and measured after 24 hrs by ELISA; format: functional, organism-based; settings: dose 2.5-10 mg/kg, time 20.0 hrs
[23] = test system: Klebsiella pneumoniae; assay: Antibacterial activity against Klebsiella pneumoniae ATCC 700603 infected in male Balb/c mouse model of pneumonia assessed as decrease in decrease in TNF-alpha level in lung at 2.5 to 10 mg/kg, ip administered at 4 and 12 hrs post-infected and measured after 24 hrs by ELISA; format: functional, organism-based; settings: dose 2.5-10 mg/kg, time 20.0 hrs
[24] = test system: Klebsiella pneumoniae; assay: Antibacterial activity against Klebsiella pneumoniae ATCC 700603 infected in male Balb/c mouse model of pneumonia assessed as decrease in decrease in IL-6 level in lung at 2.5 to 10 mg/kg, ip administered at 4 and 12 hrs post-infected and measured after 24 hrs by ELISA; format: functional, organism-based; settings: dose 2.5-10 mg/kg, time 20.0 hrs
[25] = test system: Staphylococcus aureus; assay: Antibacterial activity against methicillin-resistant Staphylococcus aureus ATCC 33591 infected in male Balb/c mouse model of full thickness skin wound assessed as reduction in bacterial load in skin at 1 mg/ml pre-infected with bacteria for 1 hrs followed by compound administration at 1,12 and 36 hrs post infection and measured 60 hrs post infection by agar plate method; format: functional, organism-based; settings: time 59.0 hrs
[26] = test system: Staphylococcus aureus; assay: (§1) Antibacterial activity against methicillin-resistant Staphylococcus aureus ATCC 33591 infected in male Balb/c mouse model of full thickness skin wound assessed as reduction in bacteria in skin wound at 1 mg/ml pre-infected with bacteria for 1 hrs followed by compound administration at 1,12 and 36 hrs post infection and measured after 10 days by photographic analysis; format: functional, organism-based; settings: time 10.0 day
[27] = test system: Staphylococcus aureus; assay: as §1, with “1,24,48” for “1,12”, “72” for “36”; format: functional, organism-based; settings: time 10.0 day

Question: With H-RRWFRRWRRWFR-NH2 as the substance, how does the MIC [1] read?
Answer: 4 µM

Question: And the MIC [2]?
Answer: 2 µM

Question: What about the EC90 [3] of the same substance?
Answer: 2.25 µM

Question: What about the EC90 [4] of the same substance?
Answer: 2.86 µM

Question: And the EC90 [5]?
Answer: 3.42 µM

Question: And the EC90 [6]?
Answer: 5.22 µM

Question: What about the hemolysis at 1 h, 256 µM [7] of the same substance?
Answer: < 10%

Question: What about the “fold change (FC)” value [8] of the same substance?
Answer: 2

Question: And the Activity [9]?
Answer: Active

Question: And the Activity [10]?
Answer: Active

Question: And the “fold change (FC)” value [11]?
Answer: 2

Question: And the “fold change (FC)” value [12]?
Answer: 32

Question: And the “fold change (FC)” value [13]?
Answer: 64

Question: What about the “inhibition (INH)” value [14] of the same substance?
Answer: ~75%

Question: What about the “fold change (FC)” value [15] of the same substance?
Answer: <=2

Question: And the “fractional inhibitory concentration index (FICI)” value [16]?
Answer: 0.5

Question: And the Activity [17]?
Answer: Not active; Compound Binds To Lps To Exert Its Activity

Question: What about the Activity [18] of the same substance?
Answer: Active

Question: And the Activity [19]?
Answer: Active

Question: What about the Activity [20] of the same substance?
Answer: Active

Question: What about the Activity [21] of the same substance?
Answer: Active

Question: What about the Activity [22] of the same substance?
Answer: Active

Question: And the Activity [23]?
Answer: Active

Question: What about the Activity [24] of the same substance?
Answer: inactive

Question: And the Activity [25]?
Answer: Active

Question: And the Activity [26]?
Answer: Active; Obvious Facilitation Of Wound Healing Not Observed

Question: And the Activity [27]?
Answer: Active; Obvious Facilitation Of Wound Healing Not Observed
